From patent US20050255084A1, “Use of a half-transporter protein of the abcg-family for selecting cells and in gene therapy” (SOLVO BIOTECHNOLOGY, priority 2001, published 2005)
Converted amounts (≈) assume the structure as drawn.

Legend:
[1] = system: mock-transduced PLB985 X-CGD cells; test: Mitoxantrone uptake assay, mock-transduced cells; type: cell-based, human; details: 10 μM FTC, 5 μM MX
Procedure: Cells were suspended in phenol red-free Hank's balanced salt solution, with additional pH stabilization by 20 mM phosphate buffer. Aliquots of the suspension, containing 3×10^5 cells, were incubated with or without the addition of 5 μM MX, and also with 5 μM MX+10 μM FTC, a specific inhibitor of ABCG2 (Rabindran et al., 2000; van Loevezijn et al., 2001). After one hour incubation at 37° C., the cells were washed with ice-cold medium, resuspended in ice-cold medium containing 21 g/ml propidium-iodide, and stored on ice until analysis by flow cytometry. Cellular MX values were determined at 635 nm excitation/661 nm emission wavelengths.

[2] = biological target: T1, ABCG2-G (Homo sapiens, UniProt Q9UNQ0, R482G); details: 10 μM FTC, 5 μM MX; ABCG2-G cells selected by 100 nM MX
T1 sequence (Q9UNQ0 whole entry R482G): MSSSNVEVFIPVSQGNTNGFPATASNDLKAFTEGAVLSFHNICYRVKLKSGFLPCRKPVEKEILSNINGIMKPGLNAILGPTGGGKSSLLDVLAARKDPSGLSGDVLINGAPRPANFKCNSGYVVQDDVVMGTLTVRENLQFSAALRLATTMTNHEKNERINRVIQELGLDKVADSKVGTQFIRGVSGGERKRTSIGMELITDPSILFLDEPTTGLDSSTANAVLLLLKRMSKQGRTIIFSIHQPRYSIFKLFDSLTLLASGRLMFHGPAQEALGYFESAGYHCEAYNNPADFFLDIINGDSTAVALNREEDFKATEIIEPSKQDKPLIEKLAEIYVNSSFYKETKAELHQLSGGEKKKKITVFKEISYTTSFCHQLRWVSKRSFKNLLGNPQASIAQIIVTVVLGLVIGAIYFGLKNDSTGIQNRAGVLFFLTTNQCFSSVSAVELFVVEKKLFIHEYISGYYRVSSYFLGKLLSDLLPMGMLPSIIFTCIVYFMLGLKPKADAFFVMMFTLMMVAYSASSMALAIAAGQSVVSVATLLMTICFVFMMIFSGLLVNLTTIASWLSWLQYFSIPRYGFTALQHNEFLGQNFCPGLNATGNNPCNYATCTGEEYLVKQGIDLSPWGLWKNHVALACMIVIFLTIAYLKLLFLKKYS
Procedure: (§1) Panel B: Flow cytometry detection of mitoxantrone uptake (dotted lines: autofluorescence, solid thick lines: MX fluorescence, solid thin lines: MX fluorescence in the presence of the ABCG2-inhibitor, FTC). Part 1: Mock-transduced PLB985s; Part 2: PLB985s expressing ABCG2-R, selected by 10 nM MX; Part 3: PLB985s expressing ABCG2-G, selected by 100 nM MX.
(§2) Functional detection of ABCG2 expression was evaluated with a modified MX uptake assay of Robey et al. (Robey et al., 2001). Cells were suspended in phenol red-free Hank's balanced salt solution, with additional pH stabilization by 20 mM phosphate buffer. Aliquots of the suspension, containing 3×10^5 cells, were incubated with or without the addition of 5 μM MX, and also with 5 μM MX+10 μM FTC, a specific inhibitor of ABCG2 (Rabindran et al., 2000; van Loevezijn et al., 2001). After one hour incubation at 37° C., the cells were washed with ice-cold medium, resuspended in ice-cold medium containing 21 µg/ml propidium-iodide, and stored on ice until analysis by flow cytometry. Cellular MX values were determined at 635 nm excitation/661 nm emission wavelengths.

[3] = biological target: ABCG2-R (Homo sapiens, UniProt Q9UNQ0); details: 10 μM FTC, 5 μM MX; ABCG2-R cells selected by 10 nM MX
Sequence of ABCG2-R (Q9UNQ0 whole entry): as the sequence (Q9UNQ0 whole entry R482G) above, with G482R counted along it
Procedure: as §1, §2

[4] = biological target: T1, ABCG2-G; details: 10 μM FTC, 5 μM MX; transduced cells pre-selected with 10 nM MX
Procedure: as §2

[5] = system: ABCG2-R (wild-type ABCG2); test: Cytotoxicity assay (cell survival after 4 days), wild-type ABCG2; type: cell-based; details: human, PLB985 cells expressing ABCG2-R (wild-type ABCG2), selected by 10 nM MX
Procedure: (§3) Panel C: Cytotoxicity assay (cell survival after 4 days) of PLB985 cells expressing the ABCG2 variants. • ∘: Control, mock-transduced PLB985s; • Δ: PLB985s expressing ABCG2-R, selected by 10 nM MX; • ◯: PLB985s expressing ABCG2-G, selected by 100 nM MX.
(§4) This assay was performed in 24-well plates, cells seeded at a density of 200,000 cells/well. Cytotoxic drugs were added at the concentrations indicated and the cells were cultured for 4 days at 37° C. Total and live cell numbers were determined by flow cytometry after the addition of 2 μg/ml propidium-iodide, to identify dead cells.

[6] = system: mouse X-CGD KO -/- bone marrow cells; test: Flow cytometry of gp91phox expression in selected mouse bone marrow cells; type: cell-based; details: 5 days selection on 5 nM or 10 nM MX; SPsAGS transduced BM cells
Procedure: (§5) Gp91^phox expression was measured by flow cytometry (Becton Dickinson FACS Calibur) by using the 7D5 antibody (provided by M. Nakamura (Nakamura et al., 1987) and phycoerythrin-labeled anti-mouse secondary antibody (GAM-PE, 250 times dilution, Sigma).
(§6) Drug selection of the transduced cells, cytotoxic assay, immunodetection of gp91^phox, nitroblue tetrazolium test (NBT) were performed similar as in human CD34+ cells except using murine cytokines. In the colony assay 10 000 cells were plated in semisolid medium containing 0, 5 and 10 nM MX.

[7] = system: mouse X-CGD KO -/- bone marrow cells; test: Colony assay from mouse bone marrow cells; type: cell-based; details: 5 nM or 10 nM MX in semisolid medium
Procedure: In the colony assay 10 000 cells were plated in semisolid medium containing 0, 5 and 10 nM MX.

[8] = Cytotoxicity assay (cell survival after 4 days), vector control; type: cell-based; details: human, mock-transduced (vector control) PLB985 cells
Procedure: as §3, §4

[9] = system: human cord blood CD34+ cells; test: Suspension culture granulocyte differentiation with MX selection; type: cell-based; details: 5 nM MX selection
Source text: (§7) Transduced PLB985 cells were selected by stepwise increases in mitoxantrone or doxorubicin (DOX; other name: adriamycin) concentrations. Selection was started 5 days (in some cases: 7 days) after transduction; each drug concentration was applied for four days (in early experiments: 8 days). CD34+ cells were selected similarly but were first selected on day two after transduction.
Cell differentiation was induced by 0.5% dimethyl-formamide (DMF) in order to obtain granulocytes. In order to follow granulocyte differentiation, cells were labelled with monoclonal anti-CD11b/RPE antibody (Dako, Denmark), and staining was determined by flow cytometry. For the induction of differentiation in the case of normal CD34+ cells, both liquid suspension cultures and clonogenic progenitor assays were used. For suspension culture, fresh media, containing cytokines +G-CSF (50 ng/ml) were added to the cells 24 hours after transduction, and then the cells were incubated for 12-14 days at 37° C.

[10] = system: ABCG2-G (R482G ABCG2); test: Cytotoxicity assay (cell survival after 4 days), R482G ABCG2; type: cell-based; details: human, PLB985 cells expressing ABCG2-G (R482G ABCG2), selected by 100 nM MX
Procedure: as §3, §4

[11] = system: mouse X-CGD KO -/- bone marrow cells; test: Cytotoxicity assay on mouse bone marrow cells; type: cell-based
Procedure: FIG. 8. Panel A Cytotoxicity assay (cell survival after four days) on transduced mouse X-CGD KO −/− bone marrow cells • ♦Control, non transduced cells • ▪Cells tranduced by SPsAGS vector carrying cDNA of ABCG2-G, unselected, • ▴Cells tranduced by SPsATS vector carrying cDNA of ABCG2-T, unselected.
as §4, §6

[12] = system: human cord blood CD34+ cells; test: Colony-forming cell assay; type: cell-based; details: 5 nM MX
Procedure: In the colony-forming cell assay the cells were plated at a concentration of 250 cells/ml and 1250 cells/ml in Iscove's medium, containing 0.9% methylcellulose, 30% FCS, 1% bovine serum albumin, 1.4×10^−5M dithiothreitol, 5 ng/ml human recombinant IL-3, 25 ng/ml SCF, 10 ng/ml GM-CSF, 2 ng/ml G-CSF and 2U/ml erythropoietin, in the presence or absence of 5 nM mitoxantrone. After 14 days of incubation at 37° C., the colony forming cells were counted.

[13] = system: transduced PLB985 X-CGD cells; test: Flow cytometry of gp91phox expression after drug selection; type: cell-based, human; details: 10 nM MX selection for four days; 40-48% before selection
Procedure: as §7, §5

| SMILES | effect on MX uptake [1] | reversal of MX extrusion [2] | reversal of MX extrusion [3] | sensitivity of MX uptake to the inhibitor [4] | IC50 at 4 days [5] [µg/mL] | gp91phox-positive cells after selection [6] [%] | colony formation ([7]; ABCG2-G transduced BM cells) | decrease of CFC number ([7]; ABCG2-T transduced BM cells) | colony formation ([7]; non-transduced BM cells) | IC50 at 4 days [8] [µg/mL] | level of CD15+ cells after selection ([9]; ABCG2-G transduced CD34+ cells) | fate of mock-transduced cells in suspension culture ([9]; mock-transduced CD34+ cells) | IC50 at 4 days [10] [µg/mL] | survival of cells ([11]; 5 nM or more mitoxantron, non-transduced control BM cells) | transduced cells resistant to MX (surviving cells) ([11]; 5 or 10 nM mitoxantron, SPsAGS or SPsATS transduced, unselected BM cells) | decrease of CFC number ([12]; ABCG2-G transduced CD34+ cells) | colony formation ([12]; mock-transduced CD34+ cells) | ratio of gp91phox-expressing cells after selection [13] |
| --- | --- | --- | --- | --- | --- | --- | --- | --- | --- | --- | --- | --- | --- | --- | --- | --- | --- | --- |
| COc1ccc2c3c([nH]c2c1)[C@H](C=C(C)C)N1C(=O)[C@@H]2CCCN2C(=O)[C@@H]1C3 [FTC, Fumitremorgin C] | no effect | fully reversible | fully reversible | fully sensitive | – | – | – | – | – | – | – | – | – | – | – | – | – | – |
| O=C1c2c(O)ccc(O)c2C(=O)c2c(NCCNCCO)ccc(NCCNCCO)c21 [MX, mitoxantrone] | – | – | – | – | 0.03 (≈ 0.0675 µM) | > 80 | hardly formed any | about 80% | did not form colonies | ~0.01 (≈ 0.0225 µM) | unchanged level of CD15+ cells | eliminated | 0.075 (≈ 0.169 µM) | all non-transduced control cells died | 15-20% | about 50% | did not form colonies | over 90% |
| COc1cccc2c1C(=O)c1c(O)c3c(c(O)c1C2=O)C[C@@](O)(C(=O)CO)C[C@@H]3O[C@H]1C[C@H](N)[C@H](O)[C@H](C)O1 [ADR, doxorubicin] | – | – | – | – | ~0.02 (≈ 0.0368 µM) | – | – | – | – | ~0.008 (≈ 0.0147 µM) | – | – | ~0.25 (≈ 0.46 µM) | – | – | – | – | – |
